Data published in paper PMC10968680, “FHND004 inhibits malignant proliferation of multiple myeloma by targeting PDZ-binding kinase in MAPK pathway” (Aging (Albany NY), 2024).
Residue numbers refer to the chain shown, from its start. pKd: −log10 of the molar value.

Key:
[1] = biological target: T1, PDZ-binding kinase (PBK) (Homo sapiens, UniProt Q96KB5, D125A/N124A); experiment: microscale thermophoresis (MST)
T1 sequence (Q96KB5 1-322 N124A/D125A): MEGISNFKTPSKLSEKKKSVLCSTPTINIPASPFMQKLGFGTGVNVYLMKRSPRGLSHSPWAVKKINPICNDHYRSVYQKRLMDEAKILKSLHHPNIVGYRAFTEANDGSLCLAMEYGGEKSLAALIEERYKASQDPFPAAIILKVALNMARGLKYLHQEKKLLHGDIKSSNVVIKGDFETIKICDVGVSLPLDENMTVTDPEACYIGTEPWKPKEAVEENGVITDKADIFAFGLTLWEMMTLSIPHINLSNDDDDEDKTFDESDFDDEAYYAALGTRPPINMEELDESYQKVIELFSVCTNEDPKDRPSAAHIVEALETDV

[2] = biological target: T2, PDZ-binding kinase (PBK) (Homo sapiens, UniProt Q96KB5); experiment: microscale thermophoresis (MST) with RED-NHS labelled purified PBK
T2 sequence (Q96KB5 1-322): T1 sequence (Q96KB5 1-322 N124A/D125A) with A124N, A125D

pKd [1]: 4.00 | pKd [2]: 5.51
Structure (SMILES): C=CC(=O)Nc1cc(Nc2nccc(-c3cn4c5c(cccc35)CCC4)n2)c(OC)cc1N(C)CCN(C)C [FHND004]
